What was measured:
ACVR1B = ACVR1B (Homo sapiens, UniProt P36896); experiment: Kinase profiling; assay type: binding; details: read-out: % Ctrl @ 1000 nM
AURKB = AURKB (Homo sapiens, UniProt Q96GD4); experiment: Kinase profiling; assay type: binding; details: read-out: % Ctrl @ 1000 nM
AURKC = AURKC (Homo sapiens, UniProt Q9UQB9); experiment: Kinase profiling; assay type: binding; details: read-out: % Ctrl @ 1000 nM
BUB1 = BUB1 (Homo sapiens, UniProt O43683); experiment: Kinase profiling; assay type: binding; details: read-out: % Ctrl @ 1000 nM
EGFR (E746-A750del) = EGFR (E746-A750del) (Homo sapiens, UniProt P00533, DEL746-750); experiment: Kinase profiling; assay type: binding; details: read-out: % Ctrl @ 1000 nM
Chain of EGFR (E746-A750del) (P00533 with tags, fused parts or gaps DEL746-750): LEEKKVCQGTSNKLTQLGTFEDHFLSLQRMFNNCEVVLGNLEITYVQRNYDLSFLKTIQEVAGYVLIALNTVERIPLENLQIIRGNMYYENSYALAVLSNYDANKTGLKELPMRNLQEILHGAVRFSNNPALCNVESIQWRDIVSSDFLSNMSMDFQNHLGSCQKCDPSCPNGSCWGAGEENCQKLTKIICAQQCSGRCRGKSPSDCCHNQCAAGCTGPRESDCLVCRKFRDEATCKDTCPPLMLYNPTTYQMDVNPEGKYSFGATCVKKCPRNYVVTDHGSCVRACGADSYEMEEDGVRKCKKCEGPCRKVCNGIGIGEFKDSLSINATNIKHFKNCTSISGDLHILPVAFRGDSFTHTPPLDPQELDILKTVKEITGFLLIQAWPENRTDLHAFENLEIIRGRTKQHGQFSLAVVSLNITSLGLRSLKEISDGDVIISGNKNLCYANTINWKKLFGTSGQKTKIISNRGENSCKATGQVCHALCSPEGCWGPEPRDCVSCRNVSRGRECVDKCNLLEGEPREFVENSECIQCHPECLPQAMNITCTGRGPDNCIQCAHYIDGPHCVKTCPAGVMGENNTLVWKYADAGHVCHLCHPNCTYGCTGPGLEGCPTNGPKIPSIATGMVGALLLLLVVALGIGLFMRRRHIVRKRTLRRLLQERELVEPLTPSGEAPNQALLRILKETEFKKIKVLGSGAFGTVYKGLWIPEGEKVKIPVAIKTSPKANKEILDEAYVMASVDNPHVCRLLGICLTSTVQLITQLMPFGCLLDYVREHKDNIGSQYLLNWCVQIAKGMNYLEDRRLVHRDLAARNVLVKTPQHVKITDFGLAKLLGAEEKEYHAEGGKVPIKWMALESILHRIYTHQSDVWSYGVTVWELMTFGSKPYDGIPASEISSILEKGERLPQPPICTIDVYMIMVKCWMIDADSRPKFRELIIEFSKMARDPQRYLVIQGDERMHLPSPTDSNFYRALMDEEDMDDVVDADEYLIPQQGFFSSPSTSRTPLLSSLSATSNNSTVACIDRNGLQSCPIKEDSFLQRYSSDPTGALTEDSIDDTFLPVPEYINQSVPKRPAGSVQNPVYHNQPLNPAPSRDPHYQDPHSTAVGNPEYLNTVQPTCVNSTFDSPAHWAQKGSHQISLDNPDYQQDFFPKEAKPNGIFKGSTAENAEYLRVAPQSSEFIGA

[1] = biological target: EGFR (L747-S752del, P753S) (Homo sapiens, UniProt P00533, DEL747-752/P753S); experiment: Kinase profiling; assay type: binding; details: read-out: % Ctrl @ 1000 nM
EGFR (L861Q) = EGFR (L861Q) (Homo sapiens, UniProt P00533, L861Q); experiment: Kinase profiling; assay type: binding; details: read-out: % Ctrl @ 1000 nM
EPHA4 = EPHA4 (Homo sapiens, UniProt P54764); experiment: Kinase profiling; assay type: binding; details: read-out: % Ctrl @ 1000 nM
EPHB4 = EPHB4 (Homo sapiens, UniProt P54760); experiment: Kinase profiling; assay type: binding; details: read-out: % Ctrl @ 1000 nM
ERK4 = ERK4 (Homo sapiens, UniProt P31152); experiment: Kinase profiling; assay type: binding; details: read-out: % Ctrl @ 1000 nM
FLT3 (ITD) = experiment: Kinase profiling; assay type: binding
GRK1 = GRK1 (Homo sapiens, UniProt Q15835); experiment: Kinase profiling; assay type: binding; details: read-out: % Ctrl @ 1000 nM
Chain of GRK1 (Q15835 whole entry): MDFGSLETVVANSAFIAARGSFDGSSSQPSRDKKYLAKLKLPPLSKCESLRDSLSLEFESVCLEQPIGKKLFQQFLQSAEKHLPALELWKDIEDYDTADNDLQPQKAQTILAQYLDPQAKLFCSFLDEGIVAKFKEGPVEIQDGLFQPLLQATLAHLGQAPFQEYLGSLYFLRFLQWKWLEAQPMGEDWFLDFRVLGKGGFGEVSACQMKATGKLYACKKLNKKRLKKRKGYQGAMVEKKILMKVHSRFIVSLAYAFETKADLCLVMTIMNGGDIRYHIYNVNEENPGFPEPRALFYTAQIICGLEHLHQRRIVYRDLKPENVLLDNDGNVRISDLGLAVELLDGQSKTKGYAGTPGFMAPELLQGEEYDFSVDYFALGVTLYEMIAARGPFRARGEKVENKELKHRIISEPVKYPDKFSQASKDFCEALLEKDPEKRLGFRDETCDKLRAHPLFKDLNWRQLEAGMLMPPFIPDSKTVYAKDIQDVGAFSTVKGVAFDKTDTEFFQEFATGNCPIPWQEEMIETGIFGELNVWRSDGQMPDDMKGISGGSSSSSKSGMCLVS

HIPK2 = HIPK2 (Homo sapiens, UniProt Q9H2X6); experiment: Kinase profiling; assay type: binding; details: read-out: % Ctrl @ 1000 nM
HIPK4 = HIPK4 (Homo sapiens, UniProt Q8NE63); experiment: Kinase profiling; assay type: binding; details: read-out: % Ctrl @ 1000 nM
KIT (D816V) = KIT (D816V) (Homo sapiens, UniProt P10721, D816V); experiment: Kinase profiling; assay type: binding; details: read-out: % Ctrl @ 1000 nM
LOK = LOK (Homo sapiens, UniProt O94804); experiment: Kinase profiling; assay type: binding; details: read-out: % Ctrl @ 1000 nM
LZK = LZK (Homo sapiens, UniProt O43283); experiment: Kinase profiling; assay type: binding; details: read-out: % Ctrl @ 1000 nM
MAP3K15 = MAP3K15 (Homo sapiens, UniProt Q6ZN16); experiment: Kinase profiling; assay type: binding; details: read-out: % Ctrl @ 1000 nM
Chain of MAP3K15 (Q6ZN16 whole entry): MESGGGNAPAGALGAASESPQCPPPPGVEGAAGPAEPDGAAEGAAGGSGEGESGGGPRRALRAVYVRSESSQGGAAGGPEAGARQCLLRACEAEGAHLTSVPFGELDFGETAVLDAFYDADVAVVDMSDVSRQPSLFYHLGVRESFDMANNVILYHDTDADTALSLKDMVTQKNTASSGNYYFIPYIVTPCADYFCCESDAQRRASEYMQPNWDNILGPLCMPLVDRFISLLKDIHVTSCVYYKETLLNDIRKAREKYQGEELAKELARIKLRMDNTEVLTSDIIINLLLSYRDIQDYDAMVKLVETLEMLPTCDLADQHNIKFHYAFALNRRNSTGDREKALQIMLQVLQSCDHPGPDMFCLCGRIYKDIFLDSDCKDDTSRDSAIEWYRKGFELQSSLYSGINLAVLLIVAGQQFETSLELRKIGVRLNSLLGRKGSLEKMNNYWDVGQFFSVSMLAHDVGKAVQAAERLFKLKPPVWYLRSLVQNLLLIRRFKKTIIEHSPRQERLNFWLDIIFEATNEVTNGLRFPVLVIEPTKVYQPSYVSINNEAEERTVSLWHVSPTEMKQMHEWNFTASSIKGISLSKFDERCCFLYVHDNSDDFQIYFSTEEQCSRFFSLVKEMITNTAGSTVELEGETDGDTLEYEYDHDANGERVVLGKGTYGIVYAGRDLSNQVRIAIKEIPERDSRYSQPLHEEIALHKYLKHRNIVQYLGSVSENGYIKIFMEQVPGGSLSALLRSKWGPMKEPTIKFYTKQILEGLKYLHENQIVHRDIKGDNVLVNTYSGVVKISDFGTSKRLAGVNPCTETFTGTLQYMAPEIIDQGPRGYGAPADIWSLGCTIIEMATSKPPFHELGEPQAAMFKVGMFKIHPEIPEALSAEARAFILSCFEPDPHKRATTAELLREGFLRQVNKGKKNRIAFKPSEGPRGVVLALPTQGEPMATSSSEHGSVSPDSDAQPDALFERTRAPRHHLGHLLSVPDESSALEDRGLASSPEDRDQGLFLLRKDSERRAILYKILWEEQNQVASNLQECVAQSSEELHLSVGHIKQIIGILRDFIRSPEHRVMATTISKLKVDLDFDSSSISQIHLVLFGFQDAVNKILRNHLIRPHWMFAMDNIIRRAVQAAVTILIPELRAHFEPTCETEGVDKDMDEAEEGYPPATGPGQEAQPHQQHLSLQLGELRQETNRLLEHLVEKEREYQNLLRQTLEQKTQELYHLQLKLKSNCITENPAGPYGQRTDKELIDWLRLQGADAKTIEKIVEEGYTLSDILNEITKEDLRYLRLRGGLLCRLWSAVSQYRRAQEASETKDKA

MARK1 = MARK1 (Homo sapiens, UniProt Q9P0L2); experiment: Kinase profiling; assay type: binding; details: read-out: % Ctrl @ 1000 nM
MELK = biological target: T1, MELK (Homo sapiens, UniProt Q14680); experiment: Kinase profiling; assay type: binding; details: read-out: % Ctrl @ 1000 nM
T1 construct: T7 phage fusion (stated for most kinases of the panel only); made in house; host or cells: T7 phage in E. coli (BL21-derived) or HEK-293 cells

MLK2 = biological target: T2, MLK2 (Homo sapiens, UniProt Q02779); experiment: Kinase profiling; assay type: binding; details: read-out: % Ctrl @ 1000 nM
T2 construct: T7 phage fusion (stated for most kinases of the panel only); made in house; host or cells: T7 phage in E. coli (BL21-derived) or HEK-293 cells

MUSK = biological target: T3, MUSK (Homo sapiens, UniProt O15146); experiment: Kinase profiling; assay type: binding; details: read-out: % Ctrl @ 1000 nM
T3 construct: T7 phage fusion (said for most assays); made in house

MYLK = biological target: T4, MYLK (Homo sapiens, UniProt Q15746); experiment: Kinase profiling; assay type: binding; details: read-out: % Ctrl @ 1000 nM
T4 construct: T7 phage fusion (said for most assays); made in house

NEK11 = biological target: T5, NEK11 (Homo sapiens, UniProt Q8NG66); experiment: Kinase profiling; assay type: binding; details: read-out: % Ctrl @ 1000 nM
T5 construct: T7 phage fusion (said for most assays); made in house

NEK4 = biological target: T6, NEK4 (Homo sapiens, UniProt P51957); experiment: Kinase profiling; assay type: binding; details: read-out: % Ctrl @ 1000 nM
T6 construct: T7 phage fusion (said for most assays); made in house
T6 sequence (P51957 whole entry, the tested form may be a part): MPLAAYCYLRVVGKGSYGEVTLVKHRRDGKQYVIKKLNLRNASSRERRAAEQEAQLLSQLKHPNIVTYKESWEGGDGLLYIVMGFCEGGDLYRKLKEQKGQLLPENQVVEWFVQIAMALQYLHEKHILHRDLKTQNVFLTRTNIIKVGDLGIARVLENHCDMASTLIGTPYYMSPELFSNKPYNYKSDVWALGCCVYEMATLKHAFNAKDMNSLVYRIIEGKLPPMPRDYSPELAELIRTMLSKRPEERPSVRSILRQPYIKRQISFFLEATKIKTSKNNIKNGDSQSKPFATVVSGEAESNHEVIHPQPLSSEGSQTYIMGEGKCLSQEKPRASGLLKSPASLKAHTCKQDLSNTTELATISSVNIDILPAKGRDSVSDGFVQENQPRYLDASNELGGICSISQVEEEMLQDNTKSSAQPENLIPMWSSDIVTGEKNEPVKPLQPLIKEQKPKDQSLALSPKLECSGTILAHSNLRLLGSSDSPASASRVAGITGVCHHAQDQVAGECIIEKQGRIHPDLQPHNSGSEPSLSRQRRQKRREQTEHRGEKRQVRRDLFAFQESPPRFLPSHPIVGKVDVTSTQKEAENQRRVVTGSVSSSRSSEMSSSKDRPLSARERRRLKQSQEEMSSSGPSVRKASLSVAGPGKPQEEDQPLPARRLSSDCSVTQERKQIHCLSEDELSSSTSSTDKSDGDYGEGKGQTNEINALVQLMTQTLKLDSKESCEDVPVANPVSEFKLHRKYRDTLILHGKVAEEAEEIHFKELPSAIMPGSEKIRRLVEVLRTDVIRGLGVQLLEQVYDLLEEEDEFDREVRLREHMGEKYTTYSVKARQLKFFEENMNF

p38-beta = p38-beta (Homo sapiens, UniProt Q15759); experiment: Kinase profiling; assay type: binding; details: read-out: % Ctrl @ 1000 nM
PFCDPK1 (P.falciparum) = PFCDPK1 (P.falciparum) (Plasmodium falciparum, UniProt P62344); experiment: Kinase profiling; assay type: binding; details: read-out: % Ctrl @ 1000 nM
PFTAIRE2 = PFTAIRE2 (Homo sapiens, UniProt Q96Q40); experiment: Kinase profiling; assay type: binding; details: read-out: % Ctrl @ 1000 nM
PKAC-beta = PKAC-beta (Homo sapiens, UniProt P22694); experiment: Kinase profiling; assay type: binding; details: read-out: % Ctrl @ 1000 nM
PRKD1 = PRKD1 (Homo sapiens, UniProt Q15139); experiment: Kinase profiling; assay type: binding; details: read-out: % Ctrl @ 1000 nM
PRKR = PRKR (Homo sapiens, UniProt P19525); experiment: Kinase profiling; assay type: binding; details: read-out: % Ctrl @ 1000 nM
Chain of PRKR (P19525 whole entry): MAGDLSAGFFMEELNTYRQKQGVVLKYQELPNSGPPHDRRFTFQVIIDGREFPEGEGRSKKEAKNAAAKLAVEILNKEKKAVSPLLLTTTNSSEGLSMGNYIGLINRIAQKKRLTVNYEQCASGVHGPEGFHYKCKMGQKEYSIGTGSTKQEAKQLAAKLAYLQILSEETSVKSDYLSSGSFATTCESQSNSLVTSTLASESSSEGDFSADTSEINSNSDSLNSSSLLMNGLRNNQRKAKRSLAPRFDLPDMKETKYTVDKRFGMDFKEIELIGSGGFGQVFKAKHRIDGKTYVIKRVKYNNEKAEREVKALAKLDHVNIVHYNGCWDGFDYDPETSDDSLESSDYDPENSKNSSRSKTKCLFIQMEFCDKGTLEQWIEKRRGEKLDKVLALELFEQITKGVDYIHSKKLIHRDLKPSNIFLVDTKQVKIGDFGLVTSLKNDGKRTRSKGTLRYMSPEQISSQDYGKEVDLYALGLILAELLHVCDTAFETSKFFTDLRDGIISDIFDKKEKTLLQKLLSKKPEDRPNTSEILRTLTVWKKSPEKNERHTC

RAF1 = RAF1 (Homo sapiens, UniProt P04049); experiment: Kinase profiling; assay type: binding; details: read-out: % Ctrl @ 1000 nM
SGK = SGK (Homo sapiens, UniProt O00141); experiment: Kinase profiling; assay type: binding; details: read-out: % Ctrl @ 1000 nM
SGK3 = SGK3 (Homo sapiens, UniProt Q96BR1); experiment: Kinase profiling; assay type: binding; details: read-out: % Ctrl @ 1000 nM
[2] = biological target: TYK2 (JH2domain-pseudokinase) (Homo sapiens, UniProt P29597); experiment: Kinase profiling; assay type: binding; details: read-out: % Ctrl @ 1000 nM
ULK1 = ULK1 (Homo sapiens, UniProt O75385); experiment: Kinase profiling; assay type: binding; details: read-out: % Ctrl @ 1000 nM
YANK3 = YANK3 (Homo sapiens, UniProt Q86UX6); experiment: Kinase profiling; assay type: binding; details: read-out: % Ctrl @ 1000 nM
[3] = test system: CD8 (T cell surface marker); experiment: CD8 IHC test in MC-38 tumor; assay type: in vivo, mouse; details: MC-38 tumors; vs vehicle group
Description: MC38 tumor tissues were collected at the end of the in vivo efficacy trial. The tumor tissue was then embedded in paraffin. The expression of CD3/CD4/CD8/F4-80 were tested by immunohistochemistry stain.

Chain of ACVR1B (P36896 24-505): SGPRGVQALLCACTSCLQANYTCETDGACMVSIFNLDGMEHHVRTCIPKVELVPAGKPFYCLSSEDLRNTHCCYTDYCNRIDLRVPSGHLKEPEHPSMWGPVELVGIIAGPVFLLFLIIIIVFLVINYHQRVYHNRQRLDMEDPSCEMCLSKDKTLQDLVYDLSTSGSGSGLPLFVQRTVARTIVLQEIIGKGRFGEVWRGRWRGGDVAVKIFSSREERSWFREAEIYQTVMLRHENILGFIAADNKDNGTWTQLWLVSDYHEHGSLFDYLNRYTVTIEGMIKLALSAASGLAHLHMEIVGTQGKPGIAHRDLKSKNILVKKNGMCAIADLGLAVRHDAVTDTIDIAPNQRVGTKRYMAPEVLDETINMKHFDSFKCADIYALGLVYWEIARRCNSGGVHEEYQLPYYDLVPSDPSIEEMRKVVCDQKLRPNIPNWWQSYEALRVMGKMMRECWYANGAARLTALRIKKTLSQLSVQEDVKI

Structure (SMILES): Cc1cc(Oc2cc(NC(=O)C3CC3)ncn2)ccc1NC(=O)Nc1ccc(Cl)c(C(F)(F)F)c1 [CBT-102]
- remaining activity at 1 µM (ACVR1B): 100%
- remaining activity at 1 µM (AURKB): 49%
- remaining activity at 1 µM (AURKC): 33%
- remaining activity at 1 µM (BUB1): 100%
- remaining activity at 1 µM (EGFR (E746-A750del)): 95%
- remaining activity at 1 µM [1]: 85%
- remaining activity at 1 µM (EGFR (L861Q)): 56%
- remaining activity at 1 µM (EPHA4): 49%
- remaining activity at 1 µM (EPHB4): 18%
- remaining activity at 1 µM (ERK4): 91%
- % Ctrl @ 1000 nM (FLT3 (ITD)): 18%
- remaining activity at 1 µM (GRK1): 100%
- remaining activity at 1 µM (HIPK2): 90%
- remaining activity at 1 µM (HIPK4): 11%
- remaining activity at 1 µM (KIT (D816V)): 18%
- remaining activity at 1 µM (LOK): 0.1%
- remaining activity at 1 µM (LZK): 97%
- remaining activity at 1 µM (MAP3K15): 99%
- remaining activity at 1 µM (MARK1): 100%
- remaining activity at 1 µM (MELK): 84%
- remaining activity at 1 µM (MLK2): 99%
- remaining activity at 1 µM (MUSK): 47%
- remaining activity at 1 µM (MYLK): 98%
- remaining activity at 1 µM (NEK11): 100%
- remaining activity at 1 µM (NEK4): 93%
- remaining activity at 1 µM (p38-beta): 0%
- remaining activity at 1 µM (PFCDPK1 (P.falciparum)): 53%
- remaining activity at 1 µM (PFTAIRE2): 60%
- remaining activity at 1 µM (PKAC-beta): 95%
- remaining activity at 1 µM (PRKD1): 100%
- remaining activity at 1 µM (PRKR): 92%
- remaining activity at 1 µM (RAF1): 3.4%
- remaining activity at 1 µM (SGK): 100%
- remaining activity at 1 µM (SGK3): 82%
- remaining activity at 1 µM [2]: 100%
- remaining activity at 1 µM (ULK1): 98%
- remaining activity at 1 µM (YANK3): 88%
- effect on T cell surface marker CD8 (IHC) [3]: no significant effect

Source: patent US20220088016A1, “CANCER TREATMENT USING MULTI-TARGETED KINASE INHIBITOR IN COMBINATION OF PROTEIN KINASE BIOMARKERS” (ZHEJIANG CROWNMAB BIOTECH CO. LTD., priority 2019, published 2022)
